Results from ChEMBL document CHEMBL4118084, “Chemical Approaches to Intervening in Ubiquitin Specific Protease 7 (USP7) Function for Oncology and Immune Oncology Therapies” (J Med Chem, 2018).

How the values were obtained:
[1] = target: T1, Ubiquitin carboxyl-terminal hydrolase 7 (Homo sapiens, UniProt Q93009); test: Inhibition of USP7 (unknown origin) using Ub-Rh110 as substrate by fluorescence based assay
[2] = target: T1, Ubiquitin carboxyl-terminal hydrolase 7; test: Inhibition of USP7 (unknown origin)
[3] = target: Ubiquitin carboxyl-terminal hydrolase 7 (Homo sapiens, UniProt Q93009, C223A); test: Inhibition of human full-length wild-type His-tagged catalytic USP7 […] expressed in baculovirus infected Sf9 cells using Ub-AMC as substrate preincubated for 30 mins followed by substrate addition measured after 1 hrs by fluorometric analysis
Chain of Ubiquitin carboxyl-terminal hydrolase 7 (Homo sapiens, UniProt Q93009, C223A) (Q93009 whole entry C223A): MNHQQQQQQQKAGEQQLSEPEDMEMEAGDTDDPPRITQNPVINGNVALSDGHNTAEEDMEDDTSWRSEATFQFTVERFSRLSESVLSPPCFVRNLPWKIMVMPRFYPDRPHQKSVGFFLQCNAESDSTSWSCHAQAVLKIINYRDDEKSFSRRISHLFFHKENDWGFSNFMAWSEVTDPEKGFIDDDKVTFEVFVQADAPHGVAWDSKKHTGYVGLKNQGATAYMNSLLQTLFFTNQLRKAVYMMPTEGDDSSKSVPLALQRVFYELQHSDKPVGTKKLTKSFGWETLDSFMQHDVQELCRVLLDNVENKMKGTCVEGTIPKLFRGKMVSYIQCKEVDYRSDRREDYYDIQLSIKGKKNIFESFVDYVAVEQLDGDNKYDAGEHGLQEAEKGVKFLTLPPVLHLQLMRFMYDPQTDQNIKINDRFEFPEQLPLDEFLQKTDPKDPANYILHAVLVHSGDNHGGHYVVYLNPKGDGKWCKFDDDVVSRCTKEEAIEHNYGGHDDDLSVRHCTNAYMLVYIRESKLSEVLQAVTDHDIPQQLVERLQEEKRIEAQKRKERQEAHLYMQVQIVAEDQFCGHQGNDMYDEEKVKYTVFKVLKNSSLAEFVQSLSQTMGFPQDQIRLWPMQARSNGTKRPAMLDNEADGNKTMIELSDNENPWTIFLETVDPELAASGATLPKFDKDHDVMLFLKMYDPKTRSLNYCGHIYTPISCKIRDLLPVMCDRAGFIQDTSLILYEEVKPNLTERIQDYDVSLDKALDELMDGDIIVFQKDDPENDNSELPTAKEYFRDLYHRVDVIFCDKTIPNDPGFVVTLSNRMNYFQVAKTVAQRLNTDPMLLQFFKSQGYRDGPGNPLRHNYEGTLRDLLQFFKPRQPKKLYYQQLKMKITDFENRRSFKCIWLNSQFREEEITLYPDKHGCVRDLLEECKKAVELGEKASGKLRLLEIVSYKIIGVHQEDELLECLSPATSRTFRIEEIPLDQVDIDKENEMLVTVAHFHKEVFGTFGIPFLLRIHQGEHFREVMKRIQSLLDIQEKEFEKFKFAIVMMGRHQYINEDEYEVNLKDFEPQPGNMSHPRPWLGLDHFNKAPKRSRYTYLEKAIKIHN

[4] = Inhibition of mouse CD4+/CD25+ Treg cells-mediated suppression of CD3-stimulated T-effector cell proliferation after 72 hrs by CellTrace violet dye-based assay; type: functional
[5] = target: T1, Ubiquitin carboxyl-terminal hydrolase 7; test: Inhibition of full-length recombinant USP7 (unknown origin) expressed in Sf9 cells using Ub-EKL as substrate preincubated for 30 mins followed by substrate addition by fluorescence based assay
[6] = target: T1, Ubiquitin carboxyl-terminal hydrolase 7; test: Inhibition of human recombinant 6His-tagged USP7 using Ub-Rh110 as substrate preincubated for 30 mins followed by substrate addition measured after 180 mins by fluorometric analysis
[7] = target: T2, Ubiquitin carboxyl-terminal hydrolase 2 (Homo sapiens, UniProt O75604); test: Inhibition of USP2 (unknown origin)
T2 sequence (O75604 whole entry): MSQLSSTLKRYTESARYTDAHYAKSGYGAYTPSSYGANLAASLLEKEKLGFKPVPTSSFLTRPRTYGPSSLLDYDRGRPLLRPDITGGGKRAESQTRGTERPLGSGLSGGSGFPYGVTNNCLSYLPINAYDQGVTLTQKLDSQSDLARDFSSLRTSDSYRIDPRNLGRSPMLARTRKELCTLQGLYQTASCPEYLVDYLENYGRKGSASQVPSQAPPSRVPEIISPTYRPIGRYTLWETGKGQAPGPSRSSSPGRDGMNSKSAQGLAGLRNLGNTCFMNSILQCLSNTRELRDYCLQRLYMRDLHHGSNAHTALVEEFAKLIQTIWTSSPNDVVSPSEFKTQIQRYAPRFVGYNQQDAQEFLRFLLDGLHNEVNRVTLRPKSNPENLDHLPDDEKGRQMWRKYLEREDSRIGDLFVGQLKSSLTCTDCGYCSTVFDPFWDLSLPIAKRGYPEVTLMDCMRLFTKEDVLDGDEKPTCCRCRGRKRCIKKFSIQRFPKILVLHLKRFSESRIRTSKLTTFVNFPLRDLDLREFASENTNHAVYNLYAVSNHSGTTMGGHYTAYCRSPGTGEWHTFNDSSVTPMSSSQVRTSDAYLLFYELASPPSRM

[8] = target: T1, Ubiquitin carboxyl-terminal hydrolase 7; test: Inhibition of USP7 (unknown origin) using human N-terminal GST-tagged UBA52 as substrate preincubated for 10 mins followed by substrate addition measured after 45 mins by coomassie brilliant blue staining-based SDS-PAGE analysis
[9] = target: T1, Ubiquitin carboxyl-terminal hydrolase 7; test: Inhibition of full-length USP7 (unknown origin) using Ub-AMC as substrate preincubated for 20 mins followed by substrate addition measured after 50 mins
[10] = target: T3, Ubiquitin carboxyl-terminal hydrolase 47 (Homo sapiens, UniProt Q96K76); test: Inhibition of USP47 (unknown origin) using Ub-AMC as substrate preincubated for 20 mins followed by substrate addition measured after 50 mins
T3 sequence (Q96K76 whole entry): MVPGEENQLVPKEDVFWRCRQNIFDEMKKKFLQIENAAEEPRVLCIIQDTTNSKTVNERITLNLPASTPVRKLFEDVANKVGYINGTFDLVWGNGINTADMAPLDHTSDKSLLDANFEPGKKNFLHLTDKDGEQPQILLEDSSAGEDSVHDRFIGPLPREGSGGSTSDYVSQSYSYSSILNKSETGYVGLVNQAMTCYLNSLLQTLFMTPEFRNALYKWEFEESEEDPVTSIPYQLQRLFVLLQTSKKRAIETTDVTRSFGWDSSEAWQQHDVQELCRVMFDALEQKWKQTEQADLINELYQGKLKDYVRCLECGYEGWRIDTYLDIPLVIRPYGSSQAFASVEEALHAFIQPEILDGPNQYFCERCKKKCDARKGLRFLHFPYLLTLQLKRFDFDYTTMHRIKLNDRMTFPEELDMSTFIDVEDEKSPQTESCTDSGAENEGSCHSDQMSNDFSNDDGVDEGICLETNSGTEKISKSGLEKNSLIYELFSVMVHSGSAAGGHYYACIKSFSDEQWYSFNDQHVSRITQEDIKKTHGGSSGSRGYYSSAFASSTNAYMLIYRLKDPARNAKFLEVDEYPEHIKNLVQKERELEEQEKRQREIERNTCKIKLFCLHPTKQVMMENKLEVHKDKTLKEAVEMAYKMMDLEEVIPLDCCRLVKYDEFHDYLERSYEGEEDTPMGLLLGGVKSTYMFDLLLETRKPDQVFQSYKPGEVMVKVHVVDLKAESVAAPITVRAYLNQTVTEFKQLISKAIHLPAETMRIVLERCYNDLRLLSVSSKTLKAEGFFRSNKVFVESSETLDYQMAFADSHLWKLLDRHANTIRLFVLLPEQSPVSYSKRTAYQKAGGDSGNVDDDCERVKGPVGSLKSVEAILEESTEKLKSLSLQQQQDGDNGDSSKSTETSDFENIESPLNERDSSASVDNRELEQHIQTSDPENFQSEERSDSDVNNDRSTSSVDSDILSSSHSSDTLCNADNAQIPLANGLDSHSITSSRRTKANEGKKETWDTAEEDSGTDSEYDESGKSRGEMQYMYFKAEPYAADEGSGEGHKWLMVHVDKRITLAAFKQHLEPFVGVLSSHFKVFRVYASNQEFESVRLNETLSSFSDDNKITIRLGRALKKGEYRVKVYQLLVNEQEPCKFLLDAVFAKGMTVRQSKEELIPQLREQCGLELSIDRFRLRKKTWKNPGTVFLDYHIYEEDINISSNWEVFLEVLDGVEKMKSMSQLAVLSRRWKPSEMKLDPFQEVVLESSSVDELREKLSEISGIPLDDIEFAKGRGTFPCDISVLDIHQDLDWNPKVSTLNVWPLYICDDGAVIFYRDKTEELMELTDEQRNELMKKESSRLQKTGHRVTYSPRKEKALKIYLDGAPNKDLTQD

[11] = target: T1, Ubiquitin carboxyl-terminal hydrolase 7; test: Inhibition of full-length native C-terminal USP7 (unknown origin) using Ub-Rho110 as substrate after 1 hr by fluorescence assay
[12] = target: T1, Ubiquitin carboxyl-terminal hydrolase 7; test: Inhibition of USP7 in human SJSA cells assessed as increase in ubiquitinated MDM2 level after 20 hrs in presence of MG132 by MSD assay; type: cell-based

T1 sequence (Q93009 whole entry): as the sequence (Q93009 whole entry C223A) above, with A223C counted along it

In the case of `CCCc1cc2c(=O)n(C(C)C3(O)CCN(C(=O)CC(C)c4ccccc4)CC3)cnc2s1` (centres undefined), the IC50 [1] is reported as 300 to 1000 nM.

Molecule `O=C(Nc1ccc2c(c1)S(=O)(=O)CC2)c1cc([N+](=O)[O-])c(Sc2c(Cl)cncc2Cl)s1` has an IC50 [2] of 130 nM.

With `CN(CCCNC(=O)c1ccc2nc3c(c(Cl)c2c1)CCCC3)Cc1ccccc1` the IC50 [3] was 28000 nM.

`O=C(Nc1cccc(CN2CCCC2)c1)c1ccc2nc3c(c(Cl)c2c1)CCCC3` gave an IC50 [2] of 8200 nM.

For `COC(=O)/C=C/CNC(=O)c1cc([N+](=O)[O-])c(Sc2cccc(Cl)c2Cl)s1`, the IC50 [4] was 580 nM.

In the case of `CC(CC(=O)N1CCC(O)(C(C)n2cnn3cccc3c2=O)CC1)c1ccccc1` (centres undefined), the IC50 [1] is reported as 200 to 1000 nM.

For `CC(=O)c1cc([N+](=O)[O-])c(Sc2ccccc2)s1`, the IC50 [5] was over 50000 nM.

Work on `O=C(Nc1ccc2c(c1)S(=O)(=O)C=C2)c1cc([N+](=O)[O-])c(Sc2c(Cl)cncc2Cl)s1` yielded an IC50 [2] of 100 nM.

Molecule `CC(=O)c1cnc(Sc2c(Cl)cncc2Cl)s1` has an IC50 [2] of 22600 nM.

`CC1=CS(=O)(=O)c2cc(NC(=O)c3cc([N+](=O)[O-])c(Sc4c(Cl)cncc4Cl)s3)ccc21` gave an IC50 [2] of 170 nM.

`CN(C)CCCNC1CS(=O)(=O)c2cc(NC(=O)c3cc([N+](=O)[O-])c(Sc4c(Cl)cncc4Cl)s3)ccc21` (centres undefined) showed an IC50 [2] of 200 nM.

For `CC(CC(=O)N1CCC(O)(C(C)n2cnc3cc[nH]c3c2=O)CC1)c1ccccc1` (centres undefined), the IC50 [1] was under 500 nM.

Molecule `C[C@@]12CCCc3coc(c31)C(=O)c1cc3c(=O)c4c(c(=O)c3cc12)c1c(=O)c2cc3c(cc2c(=O)c1c1c(=O)c2cc5c(cc2c(=O)c41)[C@]1(C)CCCc2coc(c21)C5=O)[C@]1(C)CCCc2coc(c21)C3=O` has an IC50 [6] of 750 nM.

Molecule `COC(=O)[C@]12CCC(C)(C)C[C@H]1[C@H]1C(=O)C=C3[C@@]4(C)C=C(C#N)C(=O)C(C)(C)[C@@H]4CC[C@@]3(C)[C@]1(C)CC2` [BARDOXOLONE METHYL] has an IC50 [7] of 22000 nM.

Work on `CC(CC(=O)N1CCC(O)(C(C)n2cnc3c(cnn3C)c2=O)CC1)c1ccccc1` (centres undefined) yielded an IC50 [1] of 200 to 1000 nM.

In the case of `COC(=O)[C@]12CCC(C)(C)C[C@H]1[C@H]1C(=O)C=C3[C@@]4(C)CC(C#N)C(=O)C(C)(C)[C@@H]4CC[C@@]3(C)[C@]1(C)CC2` (some centres undefined), the IC50 [8] is reported as 25000 nM.

`C[C@H]1[C@H](C)CC[C@]2(C(=O)O)CC[C@]3(C)C(=CC[C@@H]4[C@@]5(C)CC[C@H](O)C(C)(C)[C@@H]5CC[C@]43C)[C@H]12` [URSOLIC ACID] gave an IC50 [9] of 7000 nM and an IC50 [10] of 26000 nM.

With `C[C@@]12CCCc3coc(c31)C(=O)c1cc3c(cc12)C(=O)C=C(C1=CC(=O)c2cc4c(cc2C1=O)C(=O)c1occ2c1[C@@]4(C)CCC2)C3=O` the IC50 [6] was 490 nM.

In the case of `CC1CS(=O)(=O)c2cc(NC(=O)c3cc([N+](=O)[O-])c(Sc4c(Cl)cncc4Cl)s3)ccc21` (centres undefined), the IC50 [2] is reported as 75 nM.

Molecule `C[C@@]12CCCc3coc(c31)C(=O)c1cc3c(cc12)C(=O)C=CC3=O` [XESTOQUINONE] has an IC50 [6] of 130 nM.

Molecule `CC(=O)Nc1ccc2c(=O)n(C(C)C3(O)CCN(C(=O)CC(C)c4ccccc4)CC3)cnc2c1` (centres undefined) has an IC50 [1] of under 200 nM.

`CCc1c(-c2ccc3c(cnn3C)c2)cnc(N)c1-c1ccc(O)cc1` showed an IC50 [11] of over 63300 nM and an IC50 [12] of 2000 nM.
